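Results reflect a 48-hour exposure of cells in 96-well plates to compound at five concentrations. TGI denotes the concentration required for complete inhibition of growth.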
Key:
Experiment in all cases: inhibition of tumour cell growth, NCI panel, 48 h
MALME-3M melanoma = tested on: MALME-3M melanoma
PC-3 prostate = tested on: PC-3 prostate
EKVX NSCLC = tested on: EKVX NSCLC
OVCAR-5 ovarian = tested on: OVCAR-5 ovarian
SF-295 CNS = tested on: SF-295 CNS
DU-145 prostate = tested on: DU-145 prostate
IGROV1 ovarian = tested on: IGROV1 ovarian
MCF7 breast = tested on: MCF7 breast
RXF 393 renal = tested on: RXF 393 renal
UACC-257 melanoma = tested on: UACC-257 melanoma
CCRF-CEM leukemia = tested on: CCRF-CEM leukemia

In the case of `COc1cccc(NCC(=O)Nn2c(-c3ccccc3)nc3ccccc3c2=O)c1`, the TGI (MALME-3M melanoma) is reported as over 100 µM, the TGI (PC-3 prostate) is reported as over 100 µM and the TGI (EKVX NSCLC) is reported as over 100 µM. It also gave a TGI (OVCAR-5 ovarian) of over 100 µM, a TGI (SF-295 CNS) of over 100 µM and a TGI (DU-145 prostate) of over 100 µM. The TGI (IGROV1 ovarian) was over 100 µM, the TGI (MCF7 breast) was over 100 µM and the TGI (RXF 393 renal) was over 100 µM. For the same compound, the TGI (UACC-257 melanoma) was over 100 µM and the TGI (CCRF-CEM leukemia) was over 100 µM.
`COC(=O)C(NC(=O)CNC(=O)CSc1nnc(COc2ccc(Cl)cc2)n1-c1ccccc1)C(C)C` (stereo not given) was tested, and the TGI (MALME-3M melanoma) was 35.5 µM, the TGI (PC-3 prostate) was 33 µM and the TGI (EKVX NSCLC) was over 100 µM. The TGI (OVCAR-5 ovarian) was 40.1 µM, the TGI (SF-295 CNS) was 34.5 µM and the TGI (DU-145 prostate) was 35.2 µM. For the same compound, the TGI (IGROV1 ovarian) was 50.1 µM, the TGI (MCF7 breast) was 30.4 µM and the TGI (RXF 393 renal) was 32.8 µM. For the same compound, the TGI (UACC-257 melanoma) was 34.6 µM and the TGI (CCRF-CEM leukemia) was over 100 µM.
With `C=C1C(=O)OC2/C=C(\C)C(O)CC(O)C(C)(O)CC(OC(=O)/C(C)=C/C)C12` (stereo not given) the TGI (MALME-3M melanoma) was over 100 µM, the TGI (PC-3 prostate) was over 100 µM and the TGI (EKVX NSCLC) was over 100 µM. For the same compound, the TGI (OVCAR-5 ovarian) was over 100 µM, the TGI (SF-295 CNS) was over 100 µM and the TGI (DU-145 prostate) was over 100 µM. It also gave a TGI (IGROV1 ovarian) of over 100 µM, a TGI (MCF7 breast) of over 100 µM and a TGI (RXF 393 renal) of over 100 µM. It also gave a TGI (UACC-257 melanoma) of over 100 µM and a TGI (CCRF-CEM leukemia) of over 82.8 µM.
`Cc1cccc2sc(NC(=O)c3cc([N+](=O)[O-])ccc3Cl)nc12` was tested, and the TGI (MALME-3M melanoma) was 30.3 µM, the TGI (PC-3 prostate) was 38.4 µM and the TGI (EKVX NSCLC) was over 100 µM. It also gave a TGI (OVCAR-5 ovarian) of 28.4 µM, a TGI (SF-295 CNS) of over 100 µM and a TGI (DU-145 prostate) of 17.4 µM. For the same compound, the TGI (IGROV1 ovarian) was 10.7 µM, the TGI (MCF7 breast) was over 100 µM and the TGI (RXF 393 renal) was 12.9 µM. It also gave a TGI (UACC-257 melanoma) of over 100 µM and a TGI (CCRF-CEM leukemia) of 2.76 µM.
With `COc1ccc(/C=C2\CN(C)CC3=C2OC(N)=C(C#N)C3c2ccc(OC)cc2)cc1` (stereo not given) the TGI (MALME-3M melanoma) was 58.1 µM, the TGI (PC-3 prostate) was over 53.1 µM and the TGI (EKVX NSCLC) was over 100 µM. The TGI (OVCAR-5 ovarian) was over 100 µM, the TGI (SF-295 CNS) was over 100 µM and the TGI (DU-145 prostate) was over 100 µM. The TGI (IGROV1 ovarian) was over 95.5 µM, the TGI (MCF7 breast) was over 100 µM and the TGI (RXF 393 renal) was over 86.9 µM. The TGI (UACC-257 melanoma) was over 100 µM and the TGI (CCRF-CEM leukemia) was 30.2 µM.
